Legend:
[1] = tested on: dextran sodium sulfate (DSS)-induced ulcerative colitis model in the rat; assay: Rat model of DSS-induced ulcerative colitis, 7-day repetitive intrarectal administration (Example 1); type: in vivo, SD rats; settings: 7 days; for Hb / Ht / RBC / WBC: hematological examination, i.r., DSS rat; for colon contraction: DSS rat (Figure 2)
Excerpt: The therapeutic effect of YY-1 was investigated with the 7-day repetitive intrarectal administration using a dextran sodium sulfate (DSS)-induced ulcerative colitis model in the rat (Cancer Research, 61, 2424-2428, 2001). To generate the rat model of DSS-induced ulcerative colitis, a 3% aqueous DSS solution was ingested ad libitum by SD rats (male, age: 7 weeks) purchased from Charles River Laboratories Japan Inc., and animals presenting bloody stools were used as the rat model of DSS-induced ulcerative colitis.
The negative control group received 0.5% aqueous CMC-Na solution (vehicle) by intrarectal administration, while the positive control group received 100 mg/kg/day 5-aminosalicylic acid (5-ASA, purchased from Aldrich Chemical Company) dissolved in 0.5% aqueous CMC-Na solution by intrarectal administration. For YY-1, the compound was combined with 0.5% aqueous CMC-Na solution by means of a vortex mixing and sonication to form a suspension, and was administered intrarectally at 20 mg/kg/day (low dose group), 100 mg/kg/day (intermediate dose group), and 500 mg/kg/day (high dose group). Each group contained 8 SD rats, and a 1% aqueous DSS solution was ingested ad libitum during the test period.

[2] = tested on: dextran sodium sulfate (DSS)-induced ulcerative colitis model in the mouse; assay: Mouse model of DSS-induced ulcerative colitis, 7-day repetitive intrarectal administration, 5.0% DSS during test period (Example 2); type: in vivo, c57BL/6J mice; settings: 7 days; for body weight gain: P < 0.05 (Figure 4); for symptom alleviation: P < 0.05 (Figure 5); for colon contraction: P < 0.05 (Figure 6)
Excerpt: (§1) The therapeutic effect of YY-1 was investigated with the 7-day repetitive intrarectal administration using a dextran sodium sulfate (DSS)-induced ulcerative colitis model in the mouse. To generate the mouse model of DSS-induced ulcerative colitis, a 9.0% aqueous DSS solution was ingested ad libitum for 7 days by c57BL/6J (male, age: 8 weeks) purchased from CLEA Japan, Inc., and animals presenting body weight loss, bloody stool, and/or diarrhea were used as the mouse model of DSS-induced ulcerative colitis.
The negative control group received 0.5% aqueous CMC-Na solution by intrarectal administration, while the positive control group received 100 mg/kg/day 5-aminosalicylic acid (5-ASA, purchased from Aldrich Chemical Company) dissolved in 0.5% aqueous CMC-Na solution by intrarectal administration. For YY-1, the compound was combined with 0.5% aqueous CMC-Na solution by means of an ultrasound mixer under ice cooling to form a suspension, and was administered intrarectally at 100 mg/kg/day or 500 mg/kg/day. Each group contained 8 c57BL/6J mice, and a 5.0% aqueous DSS solution was ingested ad libitum during the test period (Figure 3).

[3] = tested on: dextran sodium sulfate (DSS)-induced ulcerative colitis model in the mouse; assay: Mouse model of DSS-induced ulcerative colitis, 7-day repetitive intrarectal administration, 9.0% DSS during test period (Example 3); type: in vivo, c57BL/6J mice; settings: 500 mg/kg/day intrarectal, 7 days
Excerpt: as §1
The negative control group received 0.5% aqueous CMC-Na solution by intrarectal administration. For YY-1, the compound was combined with 0.5% aqueous CMC-Na solution by means of an ultrasound mixer under ice cooling to prepare a suspension, and was administered intrarectally at 500 mg/kg/day. Each group contained 8 c57BL/6J mice, and a 9.0% aqueous DSS solution was ingested ad libitum during the test period (Figure 7).

Nc1ccc(O)c(C(=O)O)c1 [5-ASA, 5-aminosalicylic acid, reference compound]
Hb ([1]; 100 mg/kg/day): 13.3 ± 0.4 g/dL
Ht ([1]; 100 mg/kg/day): 41.7 ± 1.1%
RBC ([1]; 100 mg/kg/day): 633 ± 27 x 10^4/µL
WBC ([1]; 100 mg/kg/day): 126 ± 20 x 10^2/µL

CC/C=C\C/C=C\C/C=C\C/C=C\C/C=C\C=C\C(O)CCC(=O)O (stereo not shown) [YY-1, (5E,7Z,10Z,13Z,16Z,19Z)-4-hydroxy-5,7,10,13,16,19-docosahexaenoic acid]
colon contraction ([1]; 100 mg/kg/day intrarectal): significant improvement
area of erosion in the mucous membrane of the colon ([1]; 500 mg/kg/day intrarectal, DSS rat (Figure 1)): significant reduction
colon contraction ([1]; 500 mg/kg/day intrarectal): significant improvement
Hb ([1]; 20 mg/kg/day): 11 ± 1.5 g/dL
Ht ([1]; 20 mg/kg/day): 35.5 ± 4.6%
RBC ([1]; 20 mg/kg/day): 519 ± 80 x 10^4/µL
WBC ([1]; 20 mg/kg/day): 136 ± 34 x 10^2/µL
Hb ([1]; 100 mg/kg/day): 12.2 ± 0.9 g/dL
Ht ([1]; 100 mg/kg/day): 41.5 ± 3.2%
RBC ([1]; 100 mg/kg/day): 605 ± 51 x 10^4/µL
WBC ([1]; 100 mg/kg/day): 120 ± 13 x 10^2/µL
Hb ([1]; 500 mg/kg/day): 13.8 ± 0.3 g/dL
Ht ([1]; 500 mg/kg/day): 45.7 ± 1.1%
RBC ([1]; 500 mg/kg/day): 670 ± 20 x 10^4/µL
WBC ([1]; 500 mg/kg/day): 138 ± 14 x 10^2/µL
body weight gain ([2]; 100 mg/kg/day intrarectal): significant improvement
symptom alleviation ([2]; 100 mg/kg/day intrarectal): significant improvement
colon contraction ([2]; 100 mg/kg/day intrarectal): significant improvement
body weight gain ([2]; 500 mg/kg/day intrarectal): significant improvement
symptom alleviation ([2]; 500 mg/kg/day intrarectal): significant improvement
colon contraction ([2]; 500 mg/kg/day intrarectal): significant improvement
colon contraction ([3]; P < 0.01 (Figure 10)): significant improvement
body weight gain ([3]; P < 0.05 (Figure 8)): significant improvement
symptom alleviation ([3]; P < 0.05 (Figure 9)): significant improvement

Reference: EP1946754A1, “THERAPEUTIC AGENT FOR ULCERATIVE COLITIS AND/OR CROHN'S DISEASE” (Yamamoto, Keiko, priority 2005, dated 2007)
